Laboratory results: BindingDB's records for doi:10.1021/jm00038a002 (George Washington University Medical Center, 1994)

Tests used:
[1] = target: Sigma non-opioid intracellular receptor 1 (Cavia porcellus) (UniProt Q60492); test: Binding affinity against sigma-1 receptor in guinea pig brain using [3H](+)-pentazocine as radioligand.
[2] = target: Sigma non-opioid intracellular receptor 1 (Cavia porcellus) (UniProt Q60492); test: Binding affinity against sigma-1 receptor in guinea pig brain using [3H](+)-pentazocine as radioligand

Sigma non-opioid intracellular receptor 1 (Cavia porcellus), sequence (Q60492 whole entry, looked up): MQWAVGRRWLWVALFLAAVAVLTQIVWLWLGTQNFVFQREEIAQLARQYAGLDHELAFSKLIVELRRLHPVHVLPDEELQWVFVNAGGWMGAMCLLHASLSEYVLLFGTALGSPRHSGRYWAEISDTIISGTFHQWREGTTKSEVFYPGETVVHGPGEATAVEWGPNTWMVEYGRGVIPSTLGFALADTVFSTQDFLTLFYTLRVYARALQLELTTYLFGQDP

Row | Ki [1] [nM] | Ki [2] [nM] | Compound
1 | 1.64 | – | O=C(NC1CCN(Cc2ccccc2)CC1)c1ccccc1I [N-(1-Benzyl-piperidin-4-yl)-2-iodo-benzamide]
2 | – | 3.02 | O=C(NC1CCN(Cc2ccccc2)CC1)c1cccc(I)c1 [N-(1-Benzyl-piperidin-4-yl)-3-iodo-benzamide]
